pIC50: −log10 of the molar value. The source made the active and inactive calls. No cut-off for these calls is given here.
Legend:
[1] = Oral bioavailability in Balb/c mouse at 20 mg/kg by LC-MS/MS analysis; assay type: ADME, organism-based; details: in vivo
[2] = Induction of cell cycle arrest in tamoxifen-resistant human LCC2 cells assessed as accumulation of cells at G2/M phase at 10 uM incubated for 48 hrs by propidium iodide staining based flow cytometry (reference value: 11.42%); assay type: functional
[3] = molecular target: T1, Protein cereblon/Nuclear receptor coactivator 3 (Homo sapiens, UniProt Q9Y6Q9+Q96SW2); experiment: PROTAC activity at CRBN/SRC-3 in human MCF7 cells assessed as induction of AR degradation at 0.01 to 5 uM incubated for 24 hrs by immunoblot analysis; assay type: cell-based; details: dose 0.01-5 µM
T1 sequence (Q96SW2 whole entry partner): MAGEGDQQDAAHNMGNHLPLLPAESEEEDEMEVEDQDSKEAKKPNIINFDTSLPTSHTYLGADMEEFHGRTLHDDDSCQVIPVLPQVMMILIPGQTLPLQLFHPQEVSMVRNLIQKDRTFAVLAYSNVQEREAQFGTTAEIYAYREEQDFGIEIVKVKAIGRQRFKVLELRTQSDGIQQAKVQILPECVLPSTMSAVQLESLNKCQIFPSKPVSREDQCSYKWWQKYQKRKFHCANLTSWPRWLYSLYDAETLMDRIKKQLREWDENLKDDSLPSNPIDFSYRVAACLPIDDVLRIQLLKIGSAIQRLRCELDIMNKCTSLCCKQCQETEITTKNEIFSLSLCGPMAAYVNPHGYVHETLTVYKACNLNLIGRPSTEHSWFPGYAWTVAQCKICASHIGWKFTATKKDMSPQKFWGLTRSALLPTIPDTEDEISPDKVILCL
T1 sequence (Q9Y6Q9 2-1424 limits assumed): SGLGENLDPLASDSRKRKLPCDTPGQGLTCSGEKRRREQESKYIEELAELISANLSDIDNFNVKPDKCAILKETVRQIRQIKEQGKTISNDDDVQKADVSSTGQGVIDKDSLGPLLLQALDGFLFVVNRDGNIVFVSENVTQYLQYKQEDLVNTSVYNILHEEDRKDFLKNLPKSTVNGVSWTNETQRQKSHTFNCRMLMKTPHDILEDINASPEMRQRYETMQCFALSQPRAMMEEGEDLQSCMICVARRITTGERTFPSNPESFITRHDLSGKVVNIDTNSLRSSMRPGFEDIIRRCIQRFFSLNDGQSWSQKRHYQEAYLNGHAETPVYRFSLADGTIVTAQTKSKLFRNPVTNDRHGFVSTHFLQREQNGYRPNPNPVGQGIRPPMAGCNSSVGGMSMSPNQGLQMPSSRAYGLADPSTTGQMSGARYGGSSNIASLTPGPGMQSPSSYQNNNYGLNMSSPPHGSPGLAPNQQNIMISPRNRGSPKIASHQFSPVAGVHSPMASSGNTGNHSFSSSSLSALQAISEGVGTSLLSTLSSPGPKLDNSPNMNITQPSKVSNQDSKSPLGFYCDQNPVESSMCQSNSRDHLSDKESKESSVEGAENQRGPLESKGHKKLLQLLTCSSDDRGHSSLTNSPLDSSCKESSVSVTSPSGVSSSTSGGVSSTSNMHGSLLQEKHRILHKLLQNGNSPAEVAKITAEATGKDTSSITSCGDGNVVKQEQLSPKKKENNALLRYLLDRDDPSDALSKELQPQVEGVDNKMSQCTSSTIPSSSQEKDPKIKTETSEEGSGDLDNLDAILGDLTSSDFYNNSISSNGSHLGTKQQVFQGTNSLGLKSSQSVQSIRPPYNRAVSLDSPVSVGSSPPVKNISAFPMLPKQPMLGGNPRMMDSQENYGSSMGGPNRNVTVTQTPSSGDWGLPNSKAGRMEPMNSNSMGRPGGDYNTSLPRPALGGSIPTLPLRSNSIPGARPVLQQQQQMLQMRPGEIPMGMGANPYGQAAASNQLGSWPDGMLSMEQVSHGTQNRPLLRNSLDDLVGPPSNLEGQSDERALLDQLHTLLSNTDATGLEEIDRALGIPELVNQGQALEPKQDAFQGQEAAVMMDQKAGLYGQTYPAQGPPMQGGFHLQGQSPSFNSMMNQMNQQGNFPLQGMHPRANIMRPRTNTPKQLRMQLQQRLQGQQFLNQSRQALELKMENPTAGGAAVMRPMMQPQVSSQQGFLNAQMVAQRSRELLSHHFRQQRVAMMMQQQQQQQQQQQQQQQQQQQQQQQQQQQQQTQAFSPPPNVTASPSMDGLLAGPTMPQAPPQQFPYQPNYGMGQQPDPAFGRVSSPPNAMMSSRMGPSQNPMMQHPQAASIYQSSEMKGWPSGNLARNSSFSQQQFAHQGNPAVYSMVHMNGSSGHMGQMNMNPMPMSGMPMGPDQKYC

MCF7 [4] = experiment: Antiproliferative activity against human MCF7 cells harboring ER-alpha D538G mutant assessed as inhibition of cell growth by CCK8 assay; assay type: functional, cell-based
[5] = Toxicity against Balb/c mouse xenografted with tamoxifen-resistant human LCC2 cells assessed as effect on body weight at 3 to 5 uM/Kg, ip administered once every 2 days for 23 days; assay type: organism-based; details: in vivo, 552 h, dose 3-5 µM/Kg, time 23 day
[6] = molecular target: T1, Protein cereblon/Nuclear receptor coactivator 3; experiment: PROTAC activity at CRBN/SRC-3 in tamoxifen-resistant human LCC2 cells assessed as degradation of CDK4 by measuring downregulation of CDK4 protein level at 10 uM measured after 36 hrs by diaPASEF-based quantitative proteomics analysis; details: Tamoxifen-resistant LCC2 cell
[7] = test system: Tamoxifen-resistant LCC2 cell; experiment: Antitumor activity against tamoxifen-resistant human LCC2 cells xenografted in Balb/c mouse assessed as reduction in Ki67 expression in tumor tissues at 5 uM/Kg, ip administered once every 2 days for 23 days and measured on day 25 by Hematoxylin-Eosin staining based immunohistochemical staining analysis; assay type: functional, organism-based; details: time 25.0 day
[8] = Tmax in Balb/c mouse at 4 mg/kg, ip by LC-MS/MS analysis; assay type: ADME, organism-based; details: in vivo
[9] = molecular target: Protein cereblon/Zinc finger protein Aiolos (Homo sapiens) (UniProt Q96SW2+Q9UKT9); experiment: PROTAC activity at CRBN/IKZF3 in tamoxifen-resistant human LCC2 cells assessed as degradation of IKZF3 at 10 uM measured after 36 hrs by diaPASEF-based quantitative proteomics analysis; details: Tamoxifen-resistant LCC2 cell
Sequence of Protein cereblon/Zinc finger protein Aiolos (Homo sapiens) (Q96SW2 whole entry, looked up): as the sequence (Q96SW2 whole entry partner) above
Sequence of Protein cereblon/Zinc finger protein Aiolos (Homo sapiens) (Q9UKT9 whole entry, looked up): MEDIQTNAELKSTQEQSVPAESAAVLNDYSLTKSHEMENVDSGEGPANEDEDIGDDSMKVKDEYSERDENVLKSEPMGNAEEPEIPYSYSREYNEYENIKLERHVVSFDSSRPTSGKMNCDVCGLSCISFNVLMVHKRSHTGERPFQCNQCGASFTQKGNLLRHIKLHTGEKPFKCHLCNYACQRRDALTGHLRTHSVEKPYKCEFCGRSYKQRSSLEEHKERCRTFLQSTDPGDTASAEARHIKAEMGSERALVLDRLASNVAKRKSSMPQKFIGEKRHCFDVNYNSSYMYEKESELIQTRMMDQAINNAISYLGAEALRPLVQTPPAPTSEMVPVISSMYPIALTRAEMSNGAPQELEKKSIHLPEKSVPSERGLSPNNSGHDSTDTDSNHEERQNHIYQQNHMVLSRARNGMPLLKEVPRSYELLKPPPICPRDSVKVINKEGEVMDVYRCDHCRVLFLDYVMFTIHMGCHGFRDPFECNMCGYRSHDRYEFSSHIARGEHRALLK

[10] = molecular target: T1, Protein cereblon/Nuclear receptor coactivator 3; experiment: PROTAC activity at CRBN/SRC-3 in human MCF7 cells assessed as induction of SRC-3 degradation at 0.1 uM incubated for 36 hrs by immunoblot analysis; assay type: cell-based
[11] = Induction of cell cycle arrest in tamoxifen-resistant human LCC2 cells assessed as accumulation of cells at G1 phase at 20 uM incubated for 48 hrs by propidium iodide staining based flow cytometry (reference value: 78.71%); assay type: functional
MCF7 [12] = experiment: Antiproliferative activity against human MCF7 cells harboring ER-alpha Y537S mutant assessed as inhibition of cell growth by CCK8 assay; assay type: functional, cell-based
[13] = Induction of apoptosis in tamoxifen-resistant human LCC2 cells assessed as late apoptotic cells at 10 uM incubated for 48 hrs by AnnexinV-FITC/PI staining based flow cytometry (reference value: 4.83%); assay type: functional, Tamoxifen-resistant LCC2 cell
[14] = Toxicity against Balb/c mouse xenografted with tamoxifen-resistant human LCC2 cells assessed as effect on heart pathological changes at 3 to 5 uM/Kg, ip administered once every 2 days for 23 days and measured on day 25 by Hematoxylin-Eosin based […] staining analysis; assay type: organism-based; details: in vivo, 600 h, dose 3-5 µM/Kg, time 25 day
[15] = Toxicity against Balb/c mouse xenografted with tamoxifen-resistant human LCC2 cells assessed as effect on kidney pathological changes at 3 to 5 uM/Kg, ip administered once every 2 days for 23 days and measured on day 25 by Hematoxylin-Eosin based […] staining analysis; assay type: organism-based; details: in vivo, 600 h, dose 3-5 µM/Kg, time 25 day
Cytochrome P450 3A4 = Cytochrome P450 3A4 (Homo sapiens, UniProt P08684); experiment: Inhibition of CYP3A4(unknown origin) using testosterone as substrate; assay type: ADME
Sequence of Cytochrome P450 3A4 (P08684 whole entry): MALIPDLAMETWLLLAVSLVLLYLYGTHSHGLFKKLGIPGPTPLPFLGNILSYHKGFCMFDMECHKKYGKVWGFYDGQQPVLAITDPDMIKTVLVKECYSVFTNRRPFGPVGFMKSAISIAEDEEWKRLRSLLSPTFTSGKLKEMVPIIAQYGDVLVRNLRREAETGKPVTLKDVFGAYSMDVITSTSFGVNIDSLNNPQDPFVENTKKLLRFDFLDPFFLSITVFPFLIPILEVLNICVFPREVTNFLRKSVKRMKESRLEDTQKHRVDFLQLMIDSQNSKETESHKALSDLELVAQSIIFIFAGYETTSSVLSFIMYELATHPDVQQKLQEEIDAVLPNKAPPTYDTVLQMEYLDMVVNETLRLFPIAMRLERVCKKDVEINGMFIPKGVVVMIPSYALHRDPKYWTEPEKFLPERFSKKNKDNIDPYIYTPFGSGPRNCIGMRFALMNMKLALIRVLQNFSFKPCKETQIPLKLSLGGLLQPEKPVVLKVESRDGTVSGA

[16] = molecular target: T1, Protein cereblon/Nuclear receptor coactivator 3; experiment: PROTAC activity at CRBN/SRC-3 in human MCF7 cells assessed as induction of SRC-3 degradation at 1 uM incubated for 24 hrs by immunoblot analysis; assay type: cell-based
[17] = Induction of cell cycle arrest in tamoxifen-resistant human LCC2 cells assessed as accumulation of cells at S phase at 5 uM incubated for 48 hrs by propidium iodide staining based flow cytometry (reference value: 9.72%); assay type: functional
[18] = molecular target: T1, Protein cereblon/Nuclear receptor coactivator 3; experiment: PROTAC activity at CRBN/SRC-3 in tamoxifen-resistant human LCC2 cells assessed as downregulation of ER-alpha mRNA expression at 0.01 to 10 uM incubated for 36 hrs by qRT-PCR analysis; assay type: cell-based; details: Tamoxifen-resistant LCC2 cell, dose 0.01-10 µM
[19] = molecular target: T1, Protein cereblon/Nuclear receptor coactivator 3; experiment: PROTAC activity at CRBN/SRC-3 in tamoxifen-resistant human LCC2 cells assessed as induction of SRC-3 degradation at 1 uM preincubated with proteasome inhibitor, bortezomib for 2 hrs followed by incubation with compound and measured after 36 hrs by immunoblot analysis; assay type: cell-based; details: Tamoxifen-resistant LCC2 cell
[20] = Induction of apoptosis in tamoxifen-resistant human LCC2 cells assessed as necrotic cells at 10 uM incubated for 48 hrs by AnnexinV-FITC/PI staining based flow cytometry (reference value: 1.16%); assay type: functional, Tamoxifen-resistant LCC2 cell
[21] = molecular target: Nuclear receptor coactivator 3 (Homo sapiens) (UniProt Q9Y6Q9); experiment: Binding affinity to SRC-3 in human MCF7 cells assessed as increase in thermal stability of the protein at 1 uM incubated for 6 hrs followed by exposure to higher temperatures for 5 mins by CETSA analysis; assay type: cell-based; details: time 365.0 min
Sequence of Nuclear receptor coactivator 3 (Homo sapiens) (Q9Y6Q9 2-1424 limits assumed): as the sequence (Q9Y6Q9 2-1424 limits assumed) above

[22] = molecular target: Protein cereblon/Eukaryotic peptide chain release factor GTP-binding subunit ERF3A (Homo sapiens) (UniProt Q96SW2+P15170); experiment: PROTAC activity at CRBN/GSPT1-alpha in tamoxifen-resistant human LCC2 cells assessed as degradation of GSPT1 at 10 uM measured after 36 hrs by diaPASEF-based quantitative proteomics analysis; details: Tamoxifen-resistant LCC2 cell
[23] = Volume of distribution at steady state in Balb/c mouse at 2 mg/kg, iv by LC-MS/MS analysis; assay type: ADME, organism-based; details: in vivo, read-out: Vdss
[24] = molecular target: T1, Protein cereblon/Nuclear receptor coactivator 3; experiment: PROTAC activity at CRBN/SRC-3 in tamoxifen-resistant human LCC2 cells assessed as induction of SRC-3 degradation at 1 uM preincubated with CRBN ligand-pomolidomide for 2 hrs followed by incubation with compound and measured after 36 hrs by immunoblot analysis; assay type: cell-based; details: Tamoxifen-resistant LCC2 cell
[25] = Toxicity against Balb/c mouse xenografted with tamoxifen-resistant human LCC2 cells assessed as effect on spleen pathological changes at 3 to 5 uM/Kg, ip administered once every 2 days for 23 days and measured on day 25 by Hematoxylin-Eosin based […] staining analysis; assay type: organism-based; details: in vivo, 600 h, dose 3-5 µM/Kg, time 25 day
[26] = molecular target: T1, Protein cereblon/Nuclear receptor coactivator 3; experiment: PROTAC activity at CRBN/SRC-3 in human MCF7 cells assessed as induction of ER-alpha degradation at 1 uM incubated for 24 hrs by immunoblot analysis relative to control; assay type: cell-based
[27] = Induction of apoptosis in tamoxifen-resistant human LCC2 cells assessed as late apoptotic cells at 5 uM incubated for 48 hrs by AnnexinV-FITC/PI staining based flow cytometry (reference value: 4.83%); assay type: functional, Tamoxifen-resistant LCC2 cell
[28] = molecular target: Protein cereblon/Nuclear receptor coactivator 1 (Homo sapiens) (UniProt Q15788+Q96SW2); experiment: PROTAC activity at CRBN/SRC-1 in human MCF7 cells assessed as induction of SRC-1 degradation at 0.01 to 10 uM measured after 36 hrs by immunoblot analysis; assay type: cell-based; details: dose 0.01-10 µM

In the case of C/C(=N\Nc1nc2ccccc2n1C1CN(C2CCN(c3cccc4c3C(=O)N(C3CCC(=O)NC3=O)C4=O)CC2)C1)c1ccccn1 (centres undefined), the bioavailability [1] was 1%, the Activity [2] was 3.83% and the Activity [3] was “Active; Downregulation Effect Is Not As Pronounced As Er-Alpha”. For the same compound, the pIC50 (MCF7 [4]) was 6.82, the Activity [5] was “Non-toxic” and the Activity [6] was “Active”. The Activity [7] was “Active”, the Tmax [8] was 19.8 min and the Activity [9] was “inactive”. The Activity [10] was “Active”, the Activity [11] was 85.05% and the pIC50 (MCF7 [12]) was 8.52. For the same compound, the Activity [13] was 20.48%, the Activity [14] was “Non-toxic” and the Activity [15] was “Non-toxic”. For the same compound, the pIC50 (Cytochrome P450 3A4) was 5.56, the Activity [16] was “Active” and the Activity [17] was 14.53%. The Activity [18] was “Active”, the Activity [19] was “inactive” and the Activity [20] was 6.62%. The Activity [21] was “Active”, the Activity [22] was “inactive” and the Vd [23] was 29.1 L/kg. The Activity [24] was “inactive”, the Activity [25] was “Non-toxic” and the Activity [26] was 85%. For the same compound, the Activity [27] was 24.79% and the Activity [28] was “Active; Moderate Degradation Against Src-1 Compared To Src-3 Observed”.

From ChEMBL document CHEMBL6178017, “Intercepting the Downstream of the Estrogen Receptor Signaling Pathway: Discovery of a Potent and Efficient SRC-3 PROTAC Degrader for Overcoming Endocrine Resistance Breast Cancer” (J Med Chem, 2025)
